# Counter-ions that a name gives are not always drawn. Like-named read-outs stand apart in the source and are kept apart here.
# Biological target: T1, human 5-HT6 receptor (Homo sapiens, UniProt P50406)
# T1 construct: host or cells: CHO-K1 cells, stably transfected; membranes prepared in house
# Test: Human 5-HT6 Receptor Binding Assay ([3H]LSD displacement, scintillation beads)
# Conditions: membranes of CHO-K1 cells with recombinant human 5-HT6, 4 nM [3H]LSD, read-out: h5-HT6 (Ki)
# Procedure: Human 5-HT6 Receptor Binding Assay
# Membranes were prepared from CHO—K1 cells stably transfected with the human 5-HT6 receptor (Euroscreen; ES-316-C). The cells were grown in Gibco Advanced DMEM-F12 (Cat#12634010) containing 2% dialyzed FBS (Hyclone Cat#SH30079.03). The cells were harvested in phosphate buffered saline (PBS) containing 0.1 mM EDTA and pelleted by centrifugation (1000×g), the supernatant was discarded and the pellets were stored at −80° C. prior to membrane preparation. Membranes were prepared as previously described (J Bio Chem. 1992, 267 (14) 9844-51). Briefly, frozen cell pellet was resuspended in a lysis buffer containing 5 mM Tris-HCl (pH 7.5), 5 mM EDTA and 1 complete EDTA-free protease inhibitor tablet (Roche Applied Science, Indianapolis, Ind.) per 50 mL buffer, and homogenized with a tissue homogenizer. The cell lysate was then centrifuged at 40,000×g for 30 min at 4° C. to collect the membranes. The membrane pellets were washed in membrane buffer (50 mM Tris-HCl (pH 7.5), 0.6 mM EDTA, 5 mM MgCl2, 1 complete EDTA-free protease inhibitor tablet per 50 mL buffer) using a tissue homogenizer. The membranes were centrifuged at 40,000×g for 30 min at 4° C. and the pellets were resuspended in membrane buffer containing 250 mM sucrose, and protein concentration was determined using the Coomassie Plus kit (Pierce Biotechnology, Rockford, Ill.).
# Membranes prepared from cells expressing recombinant human 5-HT6 receptor (h5-HT6) were resuspended in assay buffer containing 50 mM Tris HCl, (pH7.4), 4 mM CaCl2, 10 μg/mL saponin, and 0.1% (w/v) ascorbic acid. Membranes were preincubated using 1.75 μg membrane protein and 0.25 mg FlashBlue scintillation beads (PerkinElmer catalogue #FB001) per well at 4° for 30 min. […] Test compounds or assay controls for total and non-specific binding were diluted in DMSO as 100× solutions and serially diluted by half log concentrations on a Perkin Elmer JANUS Automated Workstation. Serotonin (10 μM final concentration) was used to determine non-specific binding in the assay. Plates were read using the Microbeta Trilux 1450 LSC and luminescence counter. Data were analyzed by nonlinear […] using the dose-response equation (variable slope) to calculate IC50 in XLfit4 (ID Business Solutions Inc.): y=(Bottom+((Top−Bottom)/(1+((IC50/x)^Hill slope))))
# Ki value was then calculated according to the Cheng-Prusoff method using the equation below (Cheng and Prusoff, 1973): Ki,app=IC50/(1+[radioligand]/Kd))
# T1 sequence (P50406 whole entry): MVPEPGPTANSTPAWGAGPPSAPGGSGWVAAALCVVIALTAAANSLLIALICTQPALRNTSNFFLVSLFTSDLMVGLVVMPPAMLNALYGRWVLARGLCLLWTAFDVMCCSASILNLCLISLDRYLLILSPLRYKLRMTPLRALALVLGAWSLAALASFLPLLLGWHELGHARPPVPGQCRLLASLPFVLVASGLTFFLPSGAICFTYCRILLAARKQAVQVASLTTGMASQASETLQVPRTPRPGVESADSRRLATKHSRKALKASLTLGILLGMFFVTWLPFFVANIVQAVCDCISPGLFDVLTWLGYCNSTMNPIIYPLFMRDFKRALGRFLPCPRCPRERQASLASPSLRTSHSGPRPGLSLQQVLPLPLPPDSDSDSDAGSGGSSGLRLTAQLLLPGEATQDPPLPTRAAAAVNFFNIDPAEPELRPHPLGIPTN
"Ki (Table 1, class symbols)",Ki (specific data),SMILES
< 0.5 µM,,O=S(=O)(c1ccc2c3c(oc2c1)CNCC3)c1ccccc1F [Example 231]
< 0.5 µM,,CC(C)Oc1cccc(S(=O)(=O)c2ccc3c(c2)OC2CNCCC32)c1 (stereo not drawn) [Example 136]
< 0.5 µM,,Nc1cccc(S(=O)(=O)c2ccc3oc4c(c3c2)CCNC4)c1 [Example 349]
< 0.5 µM,,O=S(=O)(Oc1ccc2c(c1)OC1CNCCC21)c1ccccc1Cl (stereo not drawn) [Example 654]
< 0.5 µM,,"O=S(=O)(c1cccc(OC(F)(F)F)c1)c1ccc2c3c([nH]c2c1)C1(CCCOC1)NCC3 (single isomer, unassigned) [Example 319]"
< 0.5 µM,,O=S(=O)(c1ccc2c(c1)OC1CNCCC21)c1ccccc1-c1ccccc1 (stereo not drawn) [Example 153]
< 0.5 µM,,O=S(=O)(Oc1ccc2c(c1)OC1CNCCC21)c1ccc(F)cc1 (stereo not drawn) [Example 644]
> 1 µM,,COc1ccc(S(=O)(=O)c2ccc3c(c2)C2CCNCC2O3)cc1 (stereo not drawn) [Example 336]
> 1 µM,,O=S(=O)(CCc1ccccc1)Oc1ccc2c(c1)OC1CNCCC21 (stereo not drawn) [Example 691]
0.5 to 1 µM,,CNC(=O)c1cccc(S(=O)(=O)c2ccc3c4c(oc3c2)CNCC4)c1 [Example 478]
< 0.5 µM,,"CC1(C)NCCC2c3ccc(S(=O)(=O)c4cccc(F)c4)cc3OC21 (stereo not drawn) [Example 624, 7-[(3-Fluorophenyl)sulfonyl]-1,1-dimethyl-1,2,3,4,4a,9a-hexahydro[1]benzofuro[2,3-c]pyridine]"
< 0.5 µM,,"CC(=O)N(C)CCC1NCCc2c1oc1ccc(S(=O)(=O)c3cccc(F)c3)cc21 (stereo not drawn) [Example 534, N-(2-{6-[(3-Fluorophenyl)sulfonyl]-1,2,3,4-tetrahydro[1]benzofuro[2,3-c]pyridin-1-yl}ethyl)-N-methylacetamide]"
< 0.5 µM,,O=S(=O)(Oc1ccc2c(c1)OC1CNCCC21)c1ccc(-c2ccon2)s1 (stereo not drawn) [Example 680]
< 0.5 µM,,O=S(=O)(c1cccc(F)c1)c1ccc2c3c(oc2c1)C1CCCCN1CC3 (stereo not drawn) [Example 617]
< 0.5 µM,,O=S(=O)(c1cc(F)cc(F)c1)c1ccc2c(c1)OC1CNCCC21 (stereo not drawn) [Example 164]
< 0.5 µM,,COc1cccc(S(=O)(=O)c2ccc3c4c(oc3c2)CNCC4)c1 [Example 199]
> 1 µM,,COc1ccc(S(=O)(=O)c2ccc3c(c2)OC2CNCCC32)cc1OC (stereo not drawn) [Example 115]
> 1 µM,,COc1cc(S(=O)(=O)c2ccc3c4c(oc3c2)CNCC4(C)C)c[n+]([O-])c1 [Example 450]
< 0.5 µM,,O=S(=O)(c1ccc2c3c(oc2c1)CNCC3)c1cccc2cccnc12 [Example 346]
< 0.5 µM,,O=S(=O)(c1ccc2c(c1)OCCO2)c1ccc2c(c1)OC1CNCCC21 (stereo not drawn) [Example 119]
< 0.5 µM,,O=S(=O)(c1cccc(OCC2CCCO2)c1)c1ccc2c(c1)OC1CNCCC21 (stereo not drawn) [Example 577]
< 0.5 µM,,O=S(=O)(c1cc(F)cc(F)c1)c1ccc2c3c(oc2c1)C1(CCOC1)NCC3 (stereo not drawn) [Example 302]

"Ki (Table 1, class symbols)",Ki (specific data),SMILES
< 0.5 µM,,O=S(=O)(c1ccc(C(F)(F)F)cc1)c1ccc2oc3c(c2c1)CCNC3 [Example 278]
< 0.5 µM,,O=S(=O)(c1cc(F)cc(Cl)c1)c1ccc2c(c1)OC1CNCCC21 (stereo not drawn) [Example 157]
< 0.5 µM,,"O=S(=O)(c1cccc(OC(F)(F)F)c1)c1ccc2c3c(oc2c1)C1(CCOCC1)NCC3 [Example 300, 7-{[3-(trifluoromethoxy)phenyl]sulfo-nyl}-2′,3,3′,4,5′,6′-hexahydro-2H-spiro[1-benzofuro[2,3-c]pyridine-1,4′-pyran]]"
< 0.5 µM,0.044 µM,"O=S(=O)(c1cccc(C(F)(F)F)c1)c1ccc2c(c1)OC1CNCCC21 (stereo not drawn) [Example 161, 7-{[3-(trifluoromethyl)phenyl]sulfonyl}-1,2,3,4,4a,9a-hexahydro[1]benzofuro[2,3-c]pyridine]"
> 1 µM,,COc1cc(S(=O)(=O)c2ccc3c4c(oc3c2)C(C)(C)NCC4)c[n+]([O-])c1 [Example 369]
< 0.5 µM,,CC(C)Oc1cc(OC(CO)CCl)cc(S(=O)(=O)c2ccc3c(c2)OC2CNCCC32)c1 (stereo not drawn) [Example 589]
< 0.5 µM,,CC1(C)CNC2(CCOC2)c2oc3cc(S(=O)(=O)c4cncc(Cl)c4)ccc3c21 (stereo not drawn) [Example 456]
> 1 µM,,CC(C)c1ccc(S(=O)(=O)Nc2ccc3c(c2)C2CCNCC2O3)cc1 (stereo not drawn) [Example 824]
< 0.5 µM,,CCOc1cc(F)cc(S(=O)(=O)c2ccc3c(c2)OC2CNCCC32)c1 (stereo not drawn) [Example 401]
< 0.5 µM,,"CC1(C2CC2)NCCc2c1oc1cc(S(=O)(=O)c3cccc(F)c3)ccc21 (racemic) [Example 29, 1-cyclopropyl-7-[(3-fluorophenyl)sulfonyl]-1-methyl-1,2,3,4-tetrahydro[1]benzofuro[2,3-c]pyridine]"
< 0.5 µM,,O=S(=O)(c1cccc(C(F)(F)F)c1)c1ccc2c3c(oc2c1)CNCC3 [Example 192]
< 0.5 µM,,CC1(C)NCCc2c1oc1cc(S(=O)(=O)c3cccnc3N3CCOCC3)ccc21 [Example 368]
< 0.5 µM,,CC1(C(F)F)NCCc2c1oc1cc(S(=O)(=O)c3ccccc3)ccc21 (stereo not drawn) [Example 524]
< 0.5 µM,,O=S(=O)(c1ccc2c3c(oc2c1)CNCC3)c1ccccc1-c1ccccc1 [Example 232]
< 0.5 µM,,O=S(=O)(c1cccnc1)c1ccc2c3c(oc2c1)CNCC3 [Example 438]
0.5 to 1 µM,,O=S(=O)(c1ccc2c(c1)OC1CNCCC21)c1cccnc1C(F)(F)F (stereo not drawn) [Example 410]
< 0.5 µM,,O=S(=O)(c1ccc(F)c(F)c1)c1ccc2oc3c(c2c1)CCNC3 [Example 240]
< 0.5 µM,,O=[N+]([O-])c1ccc(S(=O)(=O)c2ccc3c4c(oc3c2)CNCC4)cc1 [Example 205]
< 0.5 µM,,O=S(=O)(c1ccc2oc3c(c2c1)CCNC3)c1cccc2cccnc12 [Example 354]
< 0.5 µM,,O=S(=O)(c1ccc(F)c(Cl)c1)c1ccc2c(c1)OC1CNCCC21 (stereo not drawn) [Example 127]
< 0.5 µM,,CC(C)CN1CCc2c(oc3cc(S(=O)(=O)c4cccc(Cl)c4)ccc23)C1 [Example 600]

SMILES,"Ki (Table 1, class symbols)",Ki (specific data)
CC(C)N1CCC2(C)c3cc(OS(=O)(=O)Cc4ccccc4)ccc3OC2C1 (stereo not drawn) [Example 804],> 1 µM,
CN1CCC2(C)c3cc(OS(=O)(=O)Cc4ccccc4)ccc3OC2C1 (stereo not drawn) [Example 809],> 1 µM,
[O-][S+](c1cncc(Cl)c1)c1ccc2c(c1)OC1CNCCC21 (stereo not drawn) [Example 391],> 1 µM,
CC(C)c1ccc(S(=O)(=O)Oc2ccc3c(c2)C2(C)CCNCC2O3)cc1 (stereo not drawn) [Example 766],0.5 to 1 µM,
CC12CCNCC1Oc1ccc(OS(=O)(=O)c3ccc(Cl)cc3)cc12 (stereo not drawn) [Example 757],> 1 µM,
"CC12CCNCC1Oc1ccc(S(=O)(=O)c3ccccc3)cc12 (stereo not drawn) [Example 62, 4a-Methyl-6-(phenylsulfonyl)-1,2,3,4,4a,9a-hexahydro[1]benzofuro[2,3-c]pyridine hydrochloride]",> 1 µM,
CC12CCNCC1Oc1cc(S(=O)(=O)c3cncc(C(F)(F)F)c3)ccc12 (stereo not drawn) [Example 431],> 1 µM,
CC12CCNCC1Oc1ccc(OS(=O)(=O)c3cc4ccccc4s3)cc12 (stereo not drawn) [Example 773],< 0.5 µM,
"O=S(=O)(c1ccccc1)c1ccc2c3c([nH]c2c1)C1(CCOC1)NCC3 (stereo not drawn) [Example 546, 7-(Phenylsulfonyl)-2,3,4,4′,5′,9-hexahydrospiro[beta-carboline-1,3′-furan]trifluoroacetate]",< 0.5 µM,
"CC12CCNCC1Oc1cc(S(=O)(=O)c3ncccn3)ccc12 (racemic) [Example 9, 4a-methyl-7-(pyrimidin-2-ylsulfonyl)-1,2,3,4,4a,9a-hexahydro[1]benzofuro[2,3-c]pyridine]",> 1 µM,

# — patent US8765779B2, “Tricyclic derivatives and their pharmaceutical use and compositions” (Cephalon, Inc., priority 2009, dated 2014)
